Measurements reported in PubChem BioAssay (NCI).
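Compound exposure: 48 hours, 5 concentrations, 96-well plates. At the GI50, growth is halved. TGI: total growth inhibition.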

Legend:
Test in all cases: growth of human tumour cells (NCI), 48 h
[1] = tested on: U251 CNS
[2] = tested on: SW-620 colon
[3] = tested on: PC-3 prostate
[4] = tested on: OVCAR-8 ovarian
[5] = tested on: RPMI-8226 leukemia
[6] = tested on: OVCAR-3 ovarian
[7] = tested on: MDA-MB-231 breast
[8] = tested on: HCT-15 colon
[9] = tested on: HL-60(TB) leukemia
[10] = tested on: LOX IMVI melanoma
[11] = tested on: TK-10 renal
[12] = tested on: K-562 leukemia
[13] = tested on: SF-268 CNS
[14] = tested on: SK-MEL-28 melanoma
[15] = tested on: MALME-3M melanoma
[16] = tested on: MOLT-4 leukemia
[17] = tested on: EKVX NSCLC
[18] = tested on: A498 renal
[19] = tested on: OVCAR-5 ovarian
[20] = tested on: DU-145 prostate
[21] = tested on: SF-295 CNS
[22] = tested on: CAKI-1 renal
[23] = tested on: NCI/ADR-RES ovarian
[24] = tested on: OVCAR-4 ovarian
[25] = tested on: SN12C renal
[26] = tested on: KM12 colon
[27] = tested on: HCC-2998 colon
[28] = tested on: NCI-H522 lung
[29] = tested on: MCF7 breast
[30] = tested on: SNB-19 CNS
[31] = tested on: SK-MEL-2 melanoma
[32] = tested on: T-47D breast
[33] = tested on: UACC-62 melanoma
[34] = tested on: SR leukemia
[35] = tested on: SNB-75 CNS
[36] = tested on: HOP-62 NSCLC
[37] = tested on: ACHN renal
[38] = tested on: RXF 393 renal
[39] = tested on: HT29 colon
[40] = tested on: SF-539 CNS
[41] = tested on: NCI-H23 lung
[42] = tested on: CCRF-CEM leukemia
[43] = tested on: NCI-H226 lung
[44] = tested on: HCT-116 colon
[45] = tested on: NCI-H460 lung
[46] = tested on: 786-0 renal
[47] = tested on: SK-OV-3 ovarian
[48] = tested on: BT-549 breast
[49] = tested on: COLO 205 colon
[50] = tested on: A549 NSCLC
[51] = tested on: M14 melanoma
[52] = tested on: HOP-92 NSCLC
[53] = tested on: UO-31 renal
[54] = tested on: IGROV1 ovarian
[55] = tested on: SK-MEL-5 melanoma
[56] = tested on: HS 578T breast
[57] = tested on: MDA-MB-435
[58] = tested on: UACC-257 melanoma
[59] = tested on: MDA-N

With `COC(=O)[C@H](Cc1ccc(O)cc1)NC(=O)[C@@H](OC)[C@@H]1Cc2cc3cc(OC4CC(OC5CC(O)C(O)C(C)O5)C(O)C(C)O4)c(C)c(O)c3c(O)c2C(=O)[C@H]1OC1CC(OC2CC(OC3CC(C)(O)C(O)C(C)O3)C(O)C(C)O2)C(O)C(C)O1` (stereo partly specified) the GI50 [1] was 0.113 µM, the TGI [1] was > 25 µM and the GI50 [2] was 0.0902 µM. The TGI [2] was > 25 µM, the GI50 [3] was 0.106 µM and the TGI [3] was > 25 µM. The GI50 [4] was 0.166 µM, the TGI [4] was > 25 µM and the GI50 [5] was 0.0417 µM. For the same molecule, the TGI [5] was 2.02 µM, the GI50 [6] was 0.155 µM and the TGI [6] was > 25 µM. For the same molecule, the GI50 [7] was 0.196 µM, the TGI [7] was > 25 µM and the GI50 [8] was 1.95 µM. The TGI [8] was > 25 µM, the GI50 [9] was 0.614 µM and the TGI [9] was > 25 µM. For the same molecule, the GI50 [10] was 0.0316 µM, the TGI [10] was > 25 µM and the GI50 [11] was 0.793 µM. The TGI [11] was > 25 µM, the GI50 [12] was 0.116 µM and the TGI [12] was > 25 µM. For the same molecule, the GI50 [13] was 0.199 µM, the TGI [13] was > 25 µM and the GI50 [14] was 0.0348 µM. For the same molecule, the TGI [14] was 0.598 µM, the GI50 [15] was 0.0397 µM and the TGI [15] was 0.492 µM. For the same molecule, the GI50 [16] was 0.126 µM, the TGI [16] was > 25 µM and the GI50 [17] was 0.152 µM. For the same molecule, the TGI [17] was > 25 µM, the GI50 [18] was 0.0892 µM and the TGI [18] was 0.451 µM. For the same molecule, the GI50 [19] was 0.207 µM, the TGI [19] was > 25 µM and the GI50 [20] was 0.164 µM. The TGI [20] was > 25 µM, the GI50 [21] was 0.132 µM and the TGI [21] was > 25 µM. The GI50 [22] was 0.45 µM, the TGI [22] was > 25 µM and the GI50 [23] was > 25 µM. The TGI [23] was > 25 µM, the GI50 [24] was 0.178 µM and the TGI [24] was > 25 µM. For the same molecule, the GI50 [25] was 0.0595 µM, the TGI [25] was > 25 µM and the GI50 [26] was 0.106 µM. For the same molecule, the TGI [26] was > 25 µM, the GI50 [27] was 0.172 µM and the TGI [27] was 0.758 µM. For the same molecule, the GI50 [28] was 0.0584 µM, the TGI [28] was > 25 µM and the GI50 [29] was 0.0119 µM. For the same molecule, the TGI [29] was > 25 µM, the GI50 [30] was 0.0713 µM and the TGI [30] was > 25 µM. It also gave a GI50 [31] of 0.1 µM, a TGI [31] of 0.748 µM and a GI50 [32] of 0.0873 µM. For the same molecule, the TGI [32] was > 25 µM, the GI50 [33] was 0.0223 µM and the TGI [33] was 0.106 µM. For the same molecule, the GI50 [34] was 0.0163 µM, the TGI [34] was > 25 µM and the GI50 [35] was 0.0773 µM. For the same molecule, the TGI [35] was 1.08 µM, the GI50 [36] was 0.106 µM and the TGI [36] was > 25 µM. The GI50 [37] was 0.405 µM, the TGI [37] was > 25 µM and the GI50 [38] was 0.0544 µM. The TGI [38] was 0.292 µM, the GI50 [39] was 0.102 µM and the TGI [39] was > 25 µM. For the same molecule, the GI50 [40] was 0.0639 µM, the TGI [40] was 1.97 µM and the GI50 [41] was 0.104 µM. The TGI [41] was > 25 µM, the GI50 [42] was 0.111 µM and the TGI [42] was > 25 µM. It also gave a GI50 [43] of 0.0759 µM, a TGI [43] of 0.582 µM and a GI50 [44] of 0.0175 µM. The TGI [44] was > 25 µM, the GI50 [45] was 0.0604 µM and the TGI [45] was > 25 µM. For the same molecule, the GI50 [46] was 0.16 µM, the TGI [46] was > 25 µM and the GI50 [47] was 0.185 µM. The TGI [47] was > 25 µM, the GI50 [48] was 0.0782 µM and the TGI [48] was 2.09 µM. It also gave a GI50 [49] of 0.0932 µM, a TGI [49] of 1.19 µM and a GI50 [50] of 0.15 µM. For the same molecule, the TGI [50] was > 25 µM, the GI50 [51] was 0.204 µM and the TGI [51] was 6.43 µM. It also gave a GI50 [52] of 0.0387 µM, a TGI [52] of 7.15 µM and a GI50 [53] of 0.914 µM. For the same molecule, the TGI [53] was > 25 µM, the GI50 [54] was 0.0357 µM and the TGI [54] was > 25 µM. It also gave a GI50 [55] of 0.0428 µM, a TGI [55] of 0.448 µM and a GI50 [56] of 0.0654 µM. The TGI [56] was 5.36 µM, the GI50 [57] was 0.0931 µM and the TGI [57] was 2.33 µM. It also gave a GI50 [58] of 0.124 µM and a TGI [58] of 4.39 µM.
With `CCC1C(=O)C(O)[C@H]2[C@@H]3C(O)CC4=CC(=O)CC[C@]4(C)[C@H]3CC[C@]12C` (stereo partly specified) the TGI [1] was > 50 µM, the TGI [2] was > 50 µM and the TGI [3] was > 50 µM. For the same molecule, the TGI [4] was > 50 µM, the TGI [5] was > 50 µM and the TGI [6] was > 50 µM. For the same molecule, the TGI [7] was > 50 µM, the TGI [8] was > 50 µM and the TGI [9] was > 50 µM. For the same molecule, the TGI [10] was > 50 µM, the TGI [11] was > 50 µM and the TGI [12] was > 50 µM. The TGI [13] was > 50 µM, the TGI [14] was > 50 µM and the TGI [15] was > 50 µM. For the same molecule, the TGI [16] was > 50 µM, the TGI [17] was > 50 µM and the TGI [18] was > 50 µM. For the same molecule, the TGI [19] was > 50 µM, the TGI [20] was > 50 µM and the TGI [21] was > 50 µM. The TGI [22] was > 50 µM, the TGI [23] was > 50 µM and the TGI [25] was > 50 µM. For the same molecule, the TGI [26] was > 50 µM, the TGI [27] was > 50 µM and the TGI [28] was > 50 µM. The TGI [29] was > 50 µM, the TGI [30] was > 50 µM and the TGI [31] was > 50 µM. The TGI [32] was > 50 µM, the TGI [33] was > 50 µM and the TGI [34] was > 50 µM. The TGI [35] was > 50 µM, the TGI [36] was > 50 µM and the TGI [37] was > 50 µM. For the same molecule, the TGI [39] was > 50 µM, the TGI [40] was > 50 µM and the TGI [41] was > 50 µM. For the same molecule, the TGI [42] was > 50 µM, the TGI [44] was > 50 µM and the TGI [45] was > 50 µM. For the same molecule, the TGI [46] was > 50 µM, the TGI [47] was > 50 µM and the TGI [49] was > 50 µM. The TGI [50] was > 50 µM, the TGI [51] was > 50 µM and the TGI [52] was > 50 µM. For the same molecule, the TGI [53] was > 50 µM, the TGI [54] was > 50 µM and the TGI [55] was > 50 µM. For the same molecule, the TGI [59] was > 50 µM, the TGI [56] was > 50 µM and the TGI [57] was > 50 µM. For the same molecule, the TGI [58] was > 50 µM.
For `COC(=O)C1C2CC3C1C3C2C(=O)OC` (stereo unspecified), the TGI [1] was > 100 µM, the TGI [2] was > 100 µM and the TGI [3] was > 100 µM. The TGI [4] was > 100 µM, the TGI [6] was > 100 µM and the TGI [7] was > 100 µM. For the same molecule, the TGI [8] was > 100 µM, the TGI [10] was > 100 µM and the TGI [11] was > 100 µM. For the same molecule, the TGI [12] was > 100 µM, the TGI [13] was > 100 µM and the TGI [14] was > 100 µM. The TGI [15] was > 100 µM, the TGI [16] was > 100 µM and the TGI [17] was > 100 µM. For the same molecule, the TGI [18] was > 100 µM, the TGI [19] was > 100 µM and the TGI [20] was > 100 µM. The TGI [21] was > 100 µM, the TGI [22] was > 100 µM and the TGI [23] was > 100 µM. For the same molecule, the TGI [24] was > 100 µM, the TGI [25] was > 100 µM and the TGI [26] was > 100 µM. For the same molecule, the TGI [27] was > 100 µM, the TGI [28] was > 100 µM and the TGI [29] was > 100 µM. The TGI [30] was > 100 µM, the TGI [31] was > 100 µM and the TGI [32] was > 100 µM. For the same molecule, the TGI [33] was > 100 µM, the TGI [35] was > 100 µM and the TGI [36] was > 100 µM. For the same molecule, the TGI [37] was > 100 µM, the TGI [38] was > 100 µM and the TGI [39] was > 100 µM. The TGI [40] was > 100 µM, the TGI [41] was > 100 µM and the TGI [42] was > 100 µM. For the same molecule, the TGI [43] was > 100 µM, the TGI [44] was > 100 µM and the TGI [45] was > 100 µM. For the same molecule, the TGI [46] was > 100 µM, the TGI [47] was > 100 µM and the TGI [49] was > 100 µM. For the same molecule, the TGI [50] was > 100 µM, the TGI [51] was > 100 µM and the TGI [52] was > 100 µM. For the same molecule, the TGI [53] was > 100 µM, the TGI [54] was > 100 µM and the TGI [55] was > 100 µM. The TGI [59] was > 100 µM, the TGI [56] was > 100 µM and the TGI [57] was > 100 µM. For the same molecule, the TGI [58] was > 100 µM.
